Where a SMILES comes first, the peptide text is derived from it. Bridges are numbered along the chain shown (N, C = ends). [ ]: non-standard residue; d: D form. NMePhe(3-Cl) = CN[C@@H](Cc1cccc(Cl)c1)C(=O)O; NMeW = CN[C@@H](Cc1c[nH]c2ccccc12)C(=O)O; NMeY = CN[C@@H](Cc1ccc(O)cc1)C(=O)O; PEG4 = NCCOCCOCCOCCOCCC(=O)O; hLys = NCCCCC[C@H](N)C(=O)O; dOrn = NCCC[C@@H](N)C(=O)O; Nle = CCCC[C@H](N)C(=O)O; Dab = NCC[C@H](N)C(=O)O; Dap = NC[C@H](N)C(=O)O

In the first test the target is transferrin receptor (hTfR) (Homo sapiens, UniProt P02786). The experiment in a line: Intermolecular interaction evaluation test between transferrin receptor (hTfR) and peptide by surface plasmon resonance (SPR). Type of test: binding.
Sequence of transferrin receptor (hTfR) (P02786 whole entry): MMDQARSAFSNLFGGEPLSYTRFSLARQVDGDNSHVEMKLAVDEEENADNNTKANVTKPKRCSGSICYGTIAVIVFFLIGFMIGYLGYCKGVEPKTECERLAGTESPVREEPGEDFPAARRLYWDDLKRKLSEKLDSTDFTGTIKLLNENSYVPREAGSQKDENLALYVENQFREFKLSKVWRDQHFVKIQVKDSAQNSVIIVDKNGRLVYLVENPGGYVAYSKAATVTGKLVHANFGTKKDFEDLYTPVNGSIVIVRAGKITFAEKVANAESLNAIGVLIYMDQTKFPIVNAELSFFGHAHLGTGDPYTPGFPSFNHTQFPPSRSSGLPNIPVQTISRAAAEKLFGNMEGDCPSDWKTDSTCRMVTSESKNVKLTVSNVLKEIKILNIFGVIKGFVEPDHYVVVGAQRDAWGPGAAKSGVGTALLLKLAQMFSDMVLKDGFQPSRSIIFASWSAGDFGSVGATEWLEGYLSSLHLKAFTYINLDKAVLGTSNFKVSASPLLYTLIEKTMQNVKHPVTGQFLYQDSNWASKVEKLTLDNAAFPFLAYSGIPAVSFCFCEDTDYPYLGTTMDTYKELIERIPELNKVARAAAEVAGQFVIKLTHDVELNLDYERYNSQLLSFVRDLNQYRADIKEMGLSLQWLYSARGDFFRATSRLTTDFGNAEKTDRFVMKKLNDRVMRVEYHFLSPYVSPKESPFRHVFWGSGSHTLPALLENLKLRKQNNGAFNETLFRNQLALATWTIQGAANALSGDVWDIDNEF
Details: not given
In a few lines:
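Receptor was Ni-captured and EDC/NHS-fixed on an NTA chip; running buffer HEPES pH 8.0 with NaCl, Tween 20, BSA and 1.0% DMSO.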
In turn, `CC[C@H](C)[C@@H]1NC(=O)[C@H](Cc2ccc(OC)cc2)NC(=O)[C@H](Cc2ccc(O)cc2)NC(=O)[C@H](CC(N)=O)NC(=O)[C@H](Cc2c[nH]c3ccccc23)N(C)C(=O)[C@H](C(C)C)NC(=O)[C@H](Cc2cccc(Cl)c2)N(C)C(=O)[C@H](C(C)C)NC(=O)[C@H](C)NC(=O)CSC[C@@H](C(=O)NCC(=O)NCC(=O)NCC(=O)NCC(=O)N[C@@H](CO)C(=O)N[C@@H](CO)C(=O)N[C@@H](CS)C(N)=O)NC(=O)[C@H](Cc2ccc(O)cc2)N(C)C(=O)[C@H](Cc2ccccc2)NC(=O)[C@@H](CCCNC(=N)N)NC(=O)[C@H](CCCNC(=N)N)NC(=O)[C@H](CCCCCN)NC1=O` [compound 341] displayed a Kd of 1 to 100 nM. Regarding `CC[C@H](C)[C@@H]1NC(=O)[C@H](Cc2ccc(OC)cc2)NC(=O)[C@H](Cc2ccc(O)cc2)NC(=O)[C@H](CC(N)=O)NC(=O)[C@H](Cc2c[nH]c3ccccc23)N(C)C(=O)[C@H](C(C)C)NC(=O)[C@H](Cc2cccc(Cl)c2)N(C)C(=O)[C@H](C(C)C)NC(=O)[C@H](C)NC(=O)CSC[C@@H](C(=O)NCC(=O)NCC(=O)NCC(=O)NCC(=O)N[C@@H](CO)C(=O)N[C@@H](CO)C(=O)N[C@@H](CS)C(N)=O)NC(=O)[C@H](Cc2ccc(O)cc2)N(C)C(=O)[C@H](Cc2ccccc2)NC(=O)[C@@H](CCCNC(=N)N)NC(=O)[C@H](CCCNC(=N)N)NC(=O)[C@H](CN)NC1=O` [compound 343], the Kd lay in the range of 1 to 100 nM.

The same test, now with this note: surface plasmon resonance, peptide vs hTfR; read-out: KD value, hTfR binding by SPR (class symbol).
For `CCCC[C@@H]1NC(=O)[C@H]([C@@H](C)CC)NC(=O)[C@H](Cc2ccc(OC)cc2)NC(=O)[C@H](Cc2ccc(O)cc2)NC(=O)[C@H](CC(N)=O)NC(=O)[C@H](Cc2c[nH]c3ccccc23)N(C)C(=O)[C@H](C(C)C)NC(=O)[C@H](Cc2cccc(Cl)c2)N(C)C(=O)[C@H](C(C)C)NC(=O)[C@H](C)NC(=O)CSC[C@@H](C(=O)NCCOCCOCCOCCOCCC(N)=O)NC(=O)[C@H](Cc2ccc(O)cc2)N(C)C(=O)[C@H](Cc2ccccc2)NC(=O)[C@@H](CCCNC(=N)N)NC(=O)[C@H](CCCNC(=N)N)NC1=O` [compound 334] ({CH2CO}-AV[NMePhe(3-Cl)]V[NMeW]NYY(Me)I[Nle]R[dR]F[NMeY]C[PEG4]-NH2; thioether N-15), the dissociation constant (Kd) fell in the range of 1 to 100 nM. Take `CC[C@H](C)[C@@H]1NC(=O)[C@H](Cc2ccc(OC)cc2)NC(=O)[C@H](Cc2ccc(O)cc2)NC(=O)[C@H](CC(N)=O)NC(=O)[C@H](Cc2c[nH]c3ccccc23)N(C)C(=O)[C@H](C(C)C)NC(=O)[C@H](Cc2cccc(Cl)c2)N(C)C(=O)[C@H](C(C)C)NC(=O)[C@H](C)NC(=O)CSC[C@@H](C(=O)NCCOCCOCCOCCOCCC(N)=O)NC(=O)[C@H](Cc2ccc(O)cc2)N(C)C(=O)[C@H](Cc2ccccc2)NC(=O)[C@@H](CCCNC(=N)N)NC(=O)[C@H](CCCNC(=N)N)NC(=O)[C@H](CN)NC1=O` [compound 336] ({CH2CO}-AV[NMePhe(3-Cl)]V[NMeW]NYY(Me)I[Dap]R[dR]F[NMeY]C[PEG4]-NH2; thioether N-15): the Kd lay within 1 to 100 nM.

Turning to `CC[C@H](C)[C@@H]1NC(=O)[C@H](Cc2ccc(OC)cc2)NC(=O)[C@H](Cc2ccc(O)cc2)NC(=O)[C@H](CC(N)=O)NC(=O)[C@H](Cc2c[nH]c3ccccc23)N(C)C(=O)[C@H](C(C)C)NC(=O)[C@H](Cc2cccc(Cl)c2)N(C)C(=O)[C@H](C(C)C)NC(=O)[C@H](C)NC(=O)CSC[C@@H](C(=O)NCCOCCOCCOCCOCCC(N)=O)NC(=O)[C@H](Cc2ccc(O)cc2)N(C)C(=O)[C@H](Cc2ccccc2)NC(=O)[C@@H](CCCNC(=N)N)NC(=O)[C@H](CCCNC(=N)N)NC(=O)[C@H](CCN)NC1=O` [compound 337] ({CH2CO}-AV[NMePhe(3-Cl)]V[NMeW]NYY(Me)I[Dab]R[dR]F[NMeY]C[PEG4]-NH2; thioether N-15), the Kd lay within 1 to 100 nM.

Take `CC[C@H](C)[C@@H]1NC(=O)[C@H](Cc2ccc(OC)cc2)NC(=O)[C@H](Cc2ccc(O)cc2)NC(=O)[C@H](CC(N)=O)NC(=O)[C@H](Cc2c[nH]c3ccccc23)N(C)C(=O)[C@H](C(C)C)NC(=O)[C@H](Cc2cccc(Cl)c2)N(C)C(=O)[C@H](C(C)C)NC(=O)[C@H](C)NC(=O)CSC[C@@H](C(=O)NCCOCCOCCOCCOCCC(N)=O)NC(=O)[C@H](Cc2ccc(O)cc2)N(C)C(=O)[C@H](Cc2ccccc2)NC(=O)[C@@H](CCCNC(=N)N)NC(=O)[C@H](CCCNC(=N)N)NC(=O)[C@@H](CCCN)NC1=O` [compound 338] ({CH2CO}-AV[NMePhe(3-Cl)]V[NMeW]NYY(Me)I[dOrn]R[dR]F[NMeY]C[PEG4]-NH2; thioether N-15): the Kd lay in the range of 1 to 100 nM. Regarding `CC[C@H](C)[C@@H]1NC(=O)[C@H](Cc2ccc(OC)cc2)NC(=O)[C@H](Cc2ccc(O)cc2)NC(=O)[C@H](CC(N)=O)NC(=O)[C@H](Cc2c[nH]c3ccccc23)N(C)C(=O)[C@H](C(C)C)NC(=O)[C@H](Cc2cccc(Cl)c2)N(C)C(=O)[C@H](C(C)C)NC(=O)[C@H](C)NC(=O)CSC[C@@H](C(=O)NCCOCCOCCOCCOCCC(N)=O)NC(=O)[C@H](Cc2ccc(O)cc2)N(C)C(=O)[C@H](Cc2ccccc2)NC(=O)[C@@H](CCCNC(=N)N)NC(=O)[C@H](CCCNC(=N)N)NC(=O)[C@H](CCCCCN)NC1=O` [compound 339] ({CH2CO}-AV[NMePhe(3-Cl)]V[NMeW]NYY(Me)I[hLys]R[dR]F[NMeY]C[PEG4]-NH2; thioether N-15), the Kd was 1 to 100 nM.

On to `CC[C@H](C)[C@@H]1NC(=O)[C@H](Cc2ccc(OC)cc2)NC(=O)[C@H](Cc2ccc(O)cc2)NC(=O)[C@H](CC(N)=O)NC(=O)[C@H](Cc2c[nH]c3ccccc23)N(C)C(=O)[C@H](C(C)C)NC(=O)[C@H](Cc2cccc(Cl)c2)N(C)C(=O)[C@H](C(C)C)NC(=O)[C@H](C)NC(=O)CSC[C@@H](C(=O)NCC(=O)N[C@@H](CCCCN=[N+]=[N-])C(N)=O)NC(=O)[C@H](Cc2ccc(O)cc2)N(C)C(=O)[C@H](Cc2ccccc2)NC(=O)[C@@H](CCCNC(=N)N)NC(=O)[C@H](CCCNC(=N)N)NC(=O)[C@H](CCC(=O)O)NC1=O` [compound 340], for which the Kd was 1 to 100 nM.

As to `CC[C@H](C)[C@@H]1NC(=O)[C@H](Cc2ccc(OC)cc2)NC(=O)[C@H](Cc2ccc(O)cc2)NC(=O)[C@H](CC(N)=O)NC(=O)[C@H](Cc2c[nH]c3ccccc23)N(C)C(=O)[C@H](C(C)C)NC(=O)[C@H](Cc2cccc(Cl)c2)N(C)C(=O)[C@H](C(C)C)NC(=O)[C@H](C)NC(=O)CSC[C@@H](C(=O)NCC(=O)NCC(=O)NCC(=O)NCC(=O)N[C@@H](CO)C(=O)N[C@@H](CO)C(=O)N[C@@H](CS)C(N)=O)NC(=O)[C@H](Cc2ccc(O)cc2)N(C)C(=O)[C@H](Cc2ccccc2)NC(=O)[C@@H](CCCNC(=N)N)NC(=O)[C@H](CCCNC(=N)N)NC(=O)[C@H](CCC(=O)O)NC1=O` [compound 342], the dissociation constant Kd lay within 1 to 100 nM. For `CC[C@H](C)[C@@H]1NC(=O)[C@H](Cc2ccc(OC)cc2)NC(=O)[C@H](Cc2ccc(O)cc2)NC(=O)[C@H](CC(N)=O)NC(=O)[C@H](Cc2c[nH]c3ccccc23)N(C)C(=O)[C@H](C(C)C)NC(=O)[C@H](Cc2cccc(Cl)c2)N(C)C(=O)[C@H](C(C)C)NC(=O)[C@H](C)NC(=O)CSC[C@@H](C(=O)NCC(=O)NCC(=O)NCC(=O)NCC(=O)N[C@@H](CO)C(=O)N[C@@H](CO)C(=O)N[C@@H](CS)C(N)=O)NC(=O)[C@H](Cc2ccc(O)cc2)N(C)C(=O)[C@H](Cc2ccccc2)NC(=O)[C@@H](CCCNC(=N)N)NC(=O)[C@H](CCCNC(=N)N)NC(=O)[C@H](CCCCN)NC1=O` [compound 344], the Kd was in the range of 1 to 100 nM.

The values are drawn from patent US20230203098A1, “HUMAN TRANSFERRIN RECEPTOR BINDING PEPTIDE” (priority 2020, published 2023).
